The values that follow come from US11484561B2, “Morus extracts rich in N-acids of imino sugars and or pipecolic acids” (Phynova Limited, priority 2011, dated 2022).

In experiment [1] the target is T1, β-D-galactosidase (bovine) (Bos taurus, UniProt Q58D55).
T1 construct: purchased Sigma-Aldrich
T1 sequence (Q58D55 28-653): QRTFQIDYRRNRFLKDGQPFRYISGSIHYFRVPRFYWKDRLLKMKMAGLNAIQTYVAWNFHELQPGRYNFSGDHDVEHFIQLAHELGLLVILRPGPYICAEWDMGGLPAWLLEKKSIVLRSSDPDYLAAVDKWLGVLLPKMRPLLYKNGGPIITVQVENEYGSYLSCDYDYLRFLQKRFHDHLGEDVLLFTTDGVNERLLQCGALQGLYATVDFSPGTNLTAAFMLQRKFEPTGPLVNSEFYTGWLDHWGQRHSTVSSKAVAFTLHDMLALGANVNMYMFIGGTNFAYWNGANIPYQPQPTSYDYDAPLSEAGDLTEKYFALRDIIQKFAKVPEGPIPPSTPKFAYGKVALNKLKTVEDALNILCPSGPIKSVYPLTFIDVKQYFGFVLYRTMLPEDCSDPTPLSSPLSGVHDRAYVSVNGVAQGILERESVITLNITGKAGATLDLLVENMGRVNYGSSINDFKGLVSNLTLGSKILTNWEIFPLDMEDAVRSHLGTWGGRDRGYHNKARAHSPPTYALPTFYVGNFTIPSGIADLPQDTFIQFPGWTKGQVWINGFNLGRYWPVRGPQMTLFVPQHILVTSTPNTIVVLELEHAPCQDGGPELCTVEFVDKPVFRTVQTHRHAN
Put plainly: Glycosidase assay, β-D-galactosidase (bovine). The experiment is classed as biochemical. To be noted: Table 16; % inhibition; concentration not given. How it is done: (§1) The assays used p-nitrophenyl-substrates and commercial enzymes purchased from Sigma-Aldrich. Enzymes were assayed at 27° C. in 0.1M citric acid/0.2M disodium hydrogen phosphate buffers at the optimum pH for the enzyme. The incubation mixture consisted of 10 μl enzyme solution, 10 μl of 10 mg/ml aqueous solution of extract and 50 μl of the appropriate 5 mM p-nitrophenyl substrate made up in buffer at the optimum pH for the enzyme. The reactions were stopped by addition of 70 μl 0.4M glycine (pH 10.4) during the exponential phase of the reaction, which had been determined at the beginning using uninhibited assays in which water replaced mulberry fractions. Final absorbances were read at 405 nm using a Versamax microplate reader (Molecular Devices). Assays were carried out in triplicate, and the values given are means of the three replicates per assay. Results are expressed as % inhibition.
(§2) Substrates are 10 mM p-nitrophenyl-glycopyranosides. Enzymes are purchased from Sigma and run at the pH optima

The subject of experiment [2] is N-acetyl-β-D-gluc (Bovine kidney). Put plainly: Glycosidase assay, N-acetyl-β-D-gluc (Bovine kidney). The following applies: Table 16; % inhibition; concentration not given. The experiment is classed as biochemical. How it is done:
as §1, §2

The target of experiment [3] is T2, β-glucuronidase (bovine liver) (Bos taurus, UniProt A3KMY8).
T2 construct: purchased Sigma-Aldrich; host or cells: bovine liver
T2 sequence (A3KMY8 1-652): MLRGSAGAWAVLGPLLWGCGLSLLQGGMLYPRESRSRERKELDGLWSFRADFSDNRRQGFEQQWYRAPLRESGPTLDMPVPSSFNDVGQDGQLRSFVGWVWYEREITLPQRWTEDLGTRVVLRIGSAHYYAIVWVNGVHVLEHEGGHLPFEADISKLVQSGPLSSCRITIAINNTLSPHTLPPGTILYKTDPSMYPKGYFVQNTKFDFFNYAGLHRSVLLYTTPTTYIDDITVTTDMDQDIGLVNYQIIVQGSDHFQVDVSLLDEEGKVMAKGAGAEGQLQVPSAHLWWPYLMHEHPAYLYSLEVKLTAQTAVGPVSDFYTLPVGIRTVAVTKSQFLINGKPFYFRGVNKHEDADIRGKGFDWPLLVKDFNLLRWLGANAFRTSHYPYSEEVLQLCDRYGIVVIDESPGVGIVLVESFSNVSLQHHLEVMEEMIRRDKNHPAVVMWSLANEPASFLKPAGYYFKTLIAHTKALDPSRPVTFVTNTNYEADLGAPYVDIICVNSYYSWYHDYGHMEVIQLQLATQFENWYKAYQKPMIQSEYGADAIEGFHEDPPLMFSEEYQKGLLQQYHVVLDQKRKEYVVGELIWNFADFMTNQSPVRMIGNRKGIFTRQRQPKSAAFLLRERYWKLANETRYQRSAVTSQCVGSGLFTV
Put plainly: Glycosidase assay, β-glucuronidase (bovine liver). The experiment is classed as biochemical. The following applies: read-out: IC50 against bovine liver β-glucuronidase. How it is done: as §1, §2

Experiment [4] has as its target T3, α-D-glucosidase (Yeast) (Saccharomyces cerevisiae, UniProt P53341).
T3 construct: purchased Sigma-Aldrich
To be noted: typical DNJ inhibitory activity shown for reference, in words; cited from earlier work.

Experiment [5] relates to α-D-glucosidase (Bacillus). To be noted: typical DNJ inhibitory activity shown for reference, in words; cited from earlier work.
Experiment [6] concerns the target T4, α-D-galactosidase (green coffee bean) (Coffea arabica, UniProt Q42656).
T4 construct: purchased Sigma-Aldrich
To be noted: typical DNJ inhibitory activity shown for reference, in words; cited from earlier work.

Experiment [7] deals with T5, α-D-mannosidase (Jack bean) (Canavalia ensiformis, UniProt C0HJB3).
T5 construct: purchased Sigma-Aldrich
T5 sequence (C0HJB3 1-562 limits assumed): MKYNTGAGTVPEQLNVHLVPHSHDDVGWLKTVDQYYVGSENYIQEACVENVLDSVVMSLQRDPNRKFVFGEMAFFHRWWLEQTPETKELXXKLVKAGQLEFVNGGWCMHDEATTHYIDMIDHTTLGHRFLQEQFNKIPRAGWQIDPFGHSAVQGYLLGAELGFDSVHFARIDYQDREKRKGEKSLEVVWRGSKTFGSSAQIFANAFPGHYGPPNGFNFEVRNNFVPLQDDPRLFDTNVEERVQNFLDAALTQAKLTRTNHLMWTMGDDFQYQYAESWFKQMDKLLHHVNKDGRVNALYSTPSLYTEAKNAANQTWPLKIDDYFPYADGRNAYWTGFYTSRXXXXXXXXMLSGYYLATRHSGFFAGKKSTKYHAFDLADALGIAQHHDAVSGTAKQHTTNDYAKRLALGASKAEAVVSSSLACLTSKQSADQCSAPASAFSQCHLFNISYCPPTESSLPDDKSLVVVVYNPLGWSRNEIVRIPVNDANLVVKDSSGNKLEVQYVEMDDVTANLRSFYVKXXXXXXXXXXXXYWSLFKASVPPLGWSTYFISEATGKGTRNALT
The following applies: typical DNJ inhibitory activity shown for reference, in words; cited from earlier work.

Experiment [8] deals with N-acetyl-β-D-gluc (Bovine kidney). On the set-up: key: NI = no inhibition. The following applies: typical DNJ inhibitory activity shown for reference, in words; cited from earlier work.
The subject of experiment [9] is N-acetyl-β-D-gluc (Jack bean). On the set-up: key: NI = no inhibition. To be noted: typical DNJ inhibitory activity shown for reference, in words; cited from earlier work.
Experiment [10] concerns the target T6, amyloglucosidase (A. niger) (Aspergillus niger, UniProt P69328).
T6 construct: purchased Sigma-Aldrich
On the set-up: key: NI = no inhibition. To be noted: typical DNJ inhibitory activity shown for reference, in words; cited from earlier work.

Structures are written as SMILES.

T4 sequence (Q42656 16-378): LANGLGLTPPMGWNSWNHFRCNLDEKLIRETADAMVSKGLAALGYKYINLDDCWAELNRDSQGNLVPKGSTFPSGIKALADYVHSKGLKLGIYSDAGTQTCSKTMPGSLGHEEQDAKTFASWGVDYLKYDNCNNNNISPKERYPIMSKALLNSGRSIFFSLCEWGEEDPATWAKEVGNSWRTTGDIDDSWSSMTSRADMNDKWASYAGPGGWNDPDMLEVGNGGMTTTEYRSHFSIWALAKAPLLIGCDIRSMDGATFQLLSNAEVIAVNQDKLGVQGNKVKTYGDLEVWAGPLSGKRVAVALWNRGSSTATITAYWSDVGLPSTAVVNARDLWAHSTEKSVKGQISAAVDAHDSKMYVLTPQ
T6 sequence (P69328 25-640): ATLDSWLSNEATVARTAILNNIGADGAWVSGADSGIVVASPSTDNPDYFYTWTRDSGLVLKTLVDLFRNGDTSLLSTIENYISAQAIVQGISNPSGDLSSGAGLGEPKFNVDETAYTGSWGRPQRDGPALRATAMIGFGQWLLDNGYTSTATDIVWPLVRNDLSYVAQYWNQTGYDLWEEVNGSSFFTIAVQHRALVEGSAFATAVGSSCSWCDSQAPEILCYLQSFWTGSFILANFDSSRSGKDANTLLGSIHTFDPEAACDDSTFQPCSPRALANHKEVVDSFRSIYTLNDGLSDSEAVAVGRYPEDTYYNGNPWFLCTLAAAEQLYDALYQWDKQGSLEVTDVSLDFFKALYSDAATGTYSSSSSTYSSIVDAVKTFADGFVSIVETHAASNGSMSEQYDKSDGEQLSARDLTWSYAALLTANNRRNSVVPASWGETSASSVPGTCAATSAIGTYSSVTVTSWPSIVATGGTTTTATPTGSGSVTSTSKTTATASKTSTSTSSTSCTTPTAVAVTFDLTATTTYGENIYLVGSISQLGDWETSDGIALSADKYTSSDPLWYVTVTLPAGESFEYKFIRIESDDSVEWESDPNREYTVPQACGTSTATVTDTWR
T3 sequence (P53341 whole entry): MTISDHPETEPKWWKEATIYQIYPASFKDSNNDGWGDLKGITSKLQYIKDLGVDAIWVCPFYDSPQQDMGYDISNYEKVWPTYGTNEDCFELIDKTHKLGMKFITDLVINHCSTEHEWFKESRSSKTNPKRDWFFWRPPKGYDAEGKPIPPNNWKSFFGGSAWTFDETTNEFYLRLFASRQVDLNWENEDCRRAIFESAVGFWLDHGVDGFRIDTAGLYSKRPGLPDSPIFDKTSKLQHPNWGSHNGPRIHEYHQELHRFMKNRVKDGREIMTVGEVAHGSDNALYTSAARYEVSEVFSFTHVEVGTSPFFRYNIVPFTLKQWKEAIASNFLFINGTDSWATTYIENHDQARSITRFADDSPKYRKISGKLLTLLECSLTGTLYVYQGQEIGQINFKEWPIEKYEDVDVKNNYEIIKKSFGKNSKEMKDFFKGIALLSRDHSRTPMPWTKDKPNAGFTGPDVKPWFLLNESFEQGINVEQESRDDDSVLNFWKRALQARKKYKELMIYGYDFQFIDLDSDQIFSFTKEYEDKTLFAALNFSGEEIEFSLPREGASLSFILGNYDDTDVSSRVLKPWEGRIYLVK

On to `O=C(O)CN1C[C@@H](O)[C@H](O)[C@H]1CO` [DAB-N-ethanoic, DAB-N-ethanoic acid], for which, in experiment [1], the “β-D-galactosidase (Bovine)” value is 0%. Further, in experiment [2], the “N-acetyl-β-D-gluc (Bovine kidney)” value is 82%. For the same molecule, in experiment [3], the IC50 – broadly, the concentration needed to halve the response being measured – came out at 523 µM.
For `OC[C@H]1NC[C@H](O)[C@@H](O)[C@@H]1O` [DNJ, 1 deoxynojirmycin], the “β-D-galactosidase (Bovine)” value in experiment [1] came to 0%. Moreover, the “N-acetyl-β-D-gluc (Bovine kidney)” value in [2] came to 0%. For the same molecule, the “α-D-glu Yeast, typical DNJ inhibitory activity” value in experiment [4] is reported as “weak”. The “α-D-glu Bacillus, typical DNJ inhibitory activity” value in [5] was “potent”. The “α-D-gal green coffee bean, typical DNJ inhibitory activity” value in experiment [6] is “weak”. For the same molecule, in experiment [7], the “α-D-man Jack bean, typical DNJ inhibitory activity” value is listed as “weak”. Further, the “N-acetyl-β-D-gluc (Bovine kidney, typical DNJ inhibitory activity)” value in experiment [8] is “NI”. Further, in [9], the “N-acetyl-β-D-gluc (Jack bean), typical DNJ inhibitory activity” value was “NI”. The “amyloglucosidase (A. niger), typical DNJ inhibitory activity” value in experiment [10] is “NI”.
On to `O=C(O)CN1C[C@H](O)[C@@H](O)[C@H](O)[C@H]1CO` [DNJ-N-ethanoic, DNJ-ethanoic acid], for which the “β-D-galactosidase (Bovine)” value in experiment [1] turned out to be 2%. The “N-acetyl-β-D-gluc (Bovine kidney)” value in experiment [2] worked out at 84%. Also, the IC50 in [3] was found to be 208 µM.
On the same counts, the results for `O=C(O)CCN1C[C@H](O)[C@@H](O)[C@H](O)[C@H]1CO` [DNJ-N-propanoic, DNJ-N-propanoic acid] are 12%, 86% and 340 µM.
